Our source for the IC50 and EC50 values is patent publication US7541352B2, “Compounds for the treatment of hepatitis C” (Bristol-Myers Squibb Company, priority 2007, dated 2009).

Where two headings read alike, the source gives them in different places.

Assay [1] deals with T1, HCV NS5B RdRp genotype 1b (Hepatitis C virus genotype 1b, UniProt Q9WMX2).
T1 construct: The protein was expressed with an 18 amino acid C-terminal truncation to enhance the solubility; made in house; host or cells: E. coli BL21(DE3), pET21a
The assay can be described thus: Modified HCV NS5B RdRp enzyme assay (preincubation protocol). It counts as biochemical. The method, then:
HCV NS5B RdRp cloning, expression, and purification. The cDNA encoding the NS5B protein of HCV, genotype 1b, was cloned into the pET21a expression vector. The protein was expressed with an 18 amino acid C-terminal truncation to enhance the solubility. The E. coli competent cell line BL21(DE3) was used for expression of the protein. Cultures were grown at 37° C. for ˜4 hours until the cultures reached an optical density of 2.0 at 600 nm. The cultures were cooled to 20° C. and induced with 1 mM IPTG. Fresh ampicillin was added to a final concentration of 50 μg/ml and the cells were grown overnight at 20° C.
Cell pellets (3 L) were lysed for purification to yield 15-24 mgs of purified NS5B. The lysis buffer consisted of 20 mM Tris-HCl, pH 7.4, 500 mM NaCl, 0.5% triton X-100, 1 mM DTT, 1 mM EDTA, 20% glycerol, 0.5 mg/ml lysozyme, 10 mM MgCl2, 15 ug/ml deoxyribonuclease I, and Complete TM protease inhibitor tablets (Roche). After addition of the lysis buffer, frozen cell pellets were resuspended using a tissue homogenizer. To reduce the viscosity of the sample, aliquots of the lysate were sonicated on ice using a microtip attached to a Branson sonicator. The sonicated lysate was centrifuged at 100,000×g for 1 hr at 4° C. and filtered through a 0.2 μm filter unit (Corning).
The protein was purified using two sequential chromatography steps: Heparin sepharose CL-6B and polyu sepharose 4B (Pharmacia). The chromatography buffers were identical to the lysis buffer but contained no lysozyme, deoxyribonuclease I, MgCl2 or protease inhibitor and the NaCl concentration of the buffer was adjusted according to the requirements for charging the protein onto the column. Each column was eluted with a NaCl gradient which varied in length from 5-50 column volumes depending on the column type. After the final chromatography step, the resulting purity of the enzyme is >90% based on SDS-PAGE analysis. The enzyme was aliquoted and stored at −80° C.
Standard HCV NS5B RdRp enzyme assay. HCV RdRp genotype 1b assays were run in a final volume of 60 μl in 96 well plates (Corning 3600). The assay buffer is composed of 20 mM Hepes, pH 7.5, 2.5 mM KCl, 2.5 mM MgCl2, 1 mM DTT, 1.6 U RNAse inhibitor (Promega N2515), 0.01 mg/ml BSA (Sigma B6917), and 2% glycerol. All compounds were serially diluted (3-fold) in DMSO and diluted further in water such that the final concentration of DMSO in the assay was 2%. HCV RdRp genotype 1b enzyme was used at a final concentration of 28 nM. A polyA template was used at 6 nM, and a biotinylated oligo-dT 12 primer was used at 180 nM final concentration. Template was obtained commercially (Amersham 27-4110). Biotinylated primer was prepared by Sigma Genosys. 3H-UTP was used at 0.6 μCi (0.29 μM total UTP). Reactions were initiated by the addition of enzyme, incubated at 30° C. for 60 min, and stopped by adding 25 μl of 50 mM EDTA containing SPA beads (4 μg/μl, Amersham RPNQ 0007). Plates were read on a Packard Top Count NXT after >1 hr incubation at room temperature.
Modified HCV NS5B RdRp enzyme assay. A modified enzyme assay was performed essentially as described for the standard enzyme assay except for the following: The biotinylated oligo dT12 primer was precaptured on streptavidin-coated SPA beads by mixing primer and beads in assay buffer and incubating at room temperature for one hour. Unbound primer was removed after centrifugation. The primer-bound beads were resuspended in 20 mM Hepes buffer, pH 7.5 and used in the assay at final concentrations of 20 nM primer and 0.67 μg/μl beads. Order of addition in the assay: enzyme (1.75 nM) was added to diluted compound followed by the addition of a mixture of template (0.36 nM), 3H-UTP (0.6 μCi, 0.29 μM), and primer-bound beads, to initiate the reaction; concentrations given are final. Reactions were allowed to proceed for 4 hours at 30° C.
IC50 values for compounds were determined using seven different [I]. […]

A further assay relates to HCV replicon cells. The assay is described as follows: HCV replicon FRET assay. To be noted: Hepatitis C virus. The format is cell-based. The method, then:
FRET Assay Preparation. The HCV FRET screening assay was performed in 96-well cell culture plates. The FRET peptide (Anaspec, Inc.) (Taliani et al., Anal. Biochem. 1996, 240, 60-67) contains a fluorescence donor, EDANS, near one end of the peptide and an acceptor, DABCYL, near the other end. The fluorescence of the peptide is quenched by […] resonance energy transfer (RET) between the donor and the acceptor, but as the NS3 protease cleaves the peptide the products are released from RET quenching and the fluorescence of the donor becomes apparent. The assay reagent was made as follows: 5× cell Luciferase cell culture lysis reagent from Promega (#E153A) diluted to 1× with dH2O, NaCl added to 150 mM final, the FRET peptide diluted to 20 μM final from a 2 mM stock.
To prepare plates, HCV replicon cells, with or without a Renilla luciferase reporter gene, were trypsinized and plated in a 96-well plate with titrated test compounds added in columns 3 through 12; columns 1 and 2 contained a control compound (HCV control inhibitor), and the bottom row contained cells with DMSO only. The plates were then placed in a CO2 incubator at 37° C.
Assays. Subsequent to addition of the test compounds described above (FRET Assay Preparation), at various times the plate was removed and Alamar blue solution (Trek Diagnostics, #00-100) was added to measure cellular toxicity. After reading in a Cytoflour 4000 instrument (PE Biosystems), plates were rinsed with PBS and then used for FRET assay by the addition of 30 ul of the FRET peptide assay reagent described above (FRET Assay Preparation) per well. The plate was then placed into the Cytoflour 4000 instrument which had been set to 340 excite/490 emission, automatic mode for up to 20 cycles and the plate read in a kinetic mode. Typically, the signal to noise using an endpoint analysis after the reads was at least three-fold. Alternatively, after Alamar blue reading, plates were rinsed with PBS, then used for luciferase assay using the Promega Dual-Glo Luciferase Assay System or the Promega EnduRen Live Cell Substrate assay.
Compound analysis was performed by quantification of the relative HCV replicon inhibition and the relative cytotoxicity values. To calculate cytoxicity values, the average Alamar Blue fluorescence signals from the control wells were set as 100% non-toxic. The individual signals in each of the compound test wells were then divided by the average control signal and multiplied by 100% to determine […]. To calculate the HCV replicon inhibition values, an average background value was obtained from the two wells containing the highest amount of HCV control inhibitor at the end of the assay period. These numbers were similar to those obtained from naïve Huh-7 cells. The background numbers were then subtracted from the average signal obtained from the control wells and this number was used as 100% activity. The individual signals in each of the compound test wells were then divided by the averaged control values after background subtraction and multiplied by 100% to determine percent activity. EC50 values were calculated as the concentration which caused a 50% reduction in FRET or luciferase activity. The two numbers generated for the compound plate, percent cytoxicity and percent activity, were used to determine compounds of interest for further analysis.
A general note: In antiviral work, replicon cells carry a viral genome segment that copies itself.

[2] abbreviates: HCV NS5B RdRp, determined using the preincubation protocol, read-out: IC50.
[3] abbreviates: HCV replicon cells, determined using the FRET assay, read-out: EC50.

T1 sequence (Q9WMX2 2420-2992): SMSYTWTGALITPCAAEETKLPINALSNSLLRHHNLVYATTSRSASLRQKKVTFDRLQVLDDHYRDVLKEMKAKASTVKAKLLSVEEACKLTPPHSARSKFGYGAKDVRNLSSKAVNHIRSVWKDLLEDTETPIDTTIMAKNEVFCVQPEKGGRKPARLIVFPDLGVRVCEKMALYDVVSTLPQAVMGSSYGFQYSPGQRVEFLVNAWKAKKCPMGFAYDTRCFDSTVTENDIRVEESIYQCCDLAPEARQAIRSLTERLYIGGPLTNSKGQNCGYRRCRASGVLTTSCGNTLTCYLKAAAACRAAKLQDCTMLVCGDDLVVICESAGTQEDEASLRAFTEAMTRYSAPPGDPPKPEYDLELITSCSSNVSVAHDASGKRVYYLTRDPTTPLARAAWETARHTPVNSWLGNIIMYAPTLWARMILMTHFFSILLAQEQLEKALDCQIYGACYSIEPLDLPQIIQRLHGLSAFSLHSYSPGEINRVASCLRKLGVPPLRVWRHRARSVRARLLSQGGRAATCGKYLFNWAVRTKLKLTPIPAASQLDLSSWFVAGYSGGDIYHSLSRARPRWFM

For `COc1ccc2c(c1)C1CC1(NC(=O)C(=O)N1C[C@@H](C)N(C)[C@@H](C)C1)Cn1c-2c(C2CCCCC2)c2ccc(C(=O)NS(=O)(=O)N(C)C)cc21` (stereo partly shown), the IC50 in assay [1] (setting [2]) lay within 1 to 500 nM. The EC50 with HCV replicon cells (setting [3]) fell in the range of 1 to 500 nM.

In the case of `COc1ccc2c(c1)C1CC1(N(C)C(=O)C(=O)N1CC(OC)C1)Cn1c-2c(C2CCCCC2)c2ccc(C(=O)NS(=O)(=O)N(C)C)cc21` (stereo not shown), in assay [1] (setting [2]), the IC50 lay in the range of 1 to 500 nM. Further, the EC50 in the assay on HCV replicon cells (setting [3]) was in the range of 1 to 500 nM.

For the compound `COc1ccc2c(c1)[C@@H]1C[C@]1(NC(=O)C(=O)N(C)C)Cn1c-2c(C2CCCCC2)c2ccc(C(=O)NS(=O)(=O)N(C)C)cc21` [drawing 40], the IC50 in assay [1] (setting [2]) is 1 to 500 nM. Also, the half-maximal effective concentration (EC50) with HCV replicon cells (setting [3]) lay in the range of 1 to 500 nM.

Consider `CCC(C)S(=O)(=O)NC(=O)c1ccc2c(C3CCCCC3)c3n(c2c1)CC1(NC(=O)C(=O)N(C)C)CC1c1cc(OC)ccc1-3` (stereo not shown), for which the concentration for half-maximal inhibition (IC50) in assay [1] (setting [2]) lay in the range of 1 to 500 nM. Further, the EC50 with HCV replicon cells (setting [3]) was 1 to 500 nM.

`COc1ccc2c(c1)C1CC1(NC(=O)N1C3CCC1CN(C)C3)Cn1c-2c(C2CCCCC2)c2ccc(C(=O)NS(=O)(=O)N(C)C)cc21` (stereo not shown) returned an IC50 in assay [1] of 1 to 500 nM. The compound further showed an EC50 in the assay on HCV replicon cells of 1 to 500 nM.

Consider `COc1ccc(C2COCCN2C(=O)C(=O)NC23CC2c2cc(OC)ccc2-c2c(C4CCCCC4)c4ccc(C(=O)NS(=O)(=O)N(C)C)cc4n2C3)cc1` (stereo not shown), for which the IC50 in assay [1] (setting [2]) was in the range of 1 to 500 nM. Also, the 50% effective concentration (EC50) with HCV replicon cells (setting [3]) fell in the range of 1 to 500 nM.

In assay [1], `COc1ccc2c(c1)CC(NC(=O)C(=O)N1C3CCC1CN(C)C3)Cn1c-2c(C2CCCCC2)c2ccc(C(=O)NS(=O)(=O)N(C)C)cc21` (stereo not shown) registered an IC50 of 1 to 500 nM. The compound further registered an EC50 in the assay on HCV replicon cells of 1 to 500 nM.

Take `COc1ccc2c(c1)[C@@H]1C[C@]1(NC(=O)C(=O)N1C[C@@H](C)O[C@@H](C)C1)Cn1c-2c(C2CCCCC2)c2ccc(C(=O)NS(=O)(=O)N(C)C)cc21` [drawing 43]: in assay [1] (setting [2]), the IC50 was in the range of 1 to 500 nM. Further, in the assay on HCV replicon cells (setting [3]), the EC50 is 1 to 500 nM.

With `COc1ccc2c(c1)C1CC1(NC(=O)C(=O)N1CC(C)N(C)C(C)C1)Cn1c-2c(C2CCCCC2)c2ccc(C(=O)NS(=O)(=O)N(C)C)cc21` (stereo not shown), the half-inhibitory concentration (IC50) in assay [1] (setting [2]) lay within 1 to 500 nM. Also, the EC50 with HCV replicon cells (setting [3]) fell in the range of 1 to 500 nM.

Turning to `COc1ccc2c(c1)C1CC1(NS(=O)(=O)N1CCOCC1)Cn1c-2c(C2CCCCC2)c2ccc(C(=O)NS(=O)(=O)N(C)C)cc21` (stereo not shown), the IC50 in assay [1] (setting [2]) was 1 to 500 nM. The EC50 in the assay with HCV replicon cells (setting [3]) is 1 to 500 nM.

On to `COc1ccc2c(c1)C1CC1(NC(=O)C(=O)N(C)C)Cn1c-2c(C2CCCCC2)c2ccc(C(=O)NS(=O)(=O)C(C)C)cc21` (stereo not shown), for which the IC50 in assay [1] (setting [2]) was in the range of 1 to 500 nM. In addition, the EC50 in the assay on HCV replicon cells (setting [3]) was in the range of 1 to 500 nM.

By IC50 is commonly meant the point on the concentration scale where inhibition reaches its midpoint. Usually EC50 stands for the concentration at which the effect is half-maximal.
